# From patent US11117859B1, “Pleuromutilin hippuric acid ester with antibacterial activity and a method of preparing the same” (SHAANXI UNIVERSITY OF SCIENCE AND TECHNOLOGY, priority 2021, dated 2021)
# Experiments:
# Type in all cases: cell-based
# [1] = tested on: multi-resistant Staphylococcus aureus 171; test: paper diffusion method drug sensitivity test, MRSA-171; conditions: for Zone of Inhibition: MRSA-171, 30 μg/tablet paper disc (6.35 mm), LB plate, 37° C., 24 h; for inhibitory effect (in words): multi-drug resistant Staphylococcus aureus 171, 30 μg/tablet
# Method: (§1) The antimicrobial efficacy was determined by a paper diffusion method drug sensitivity test.
# (§2) Experimental strains: multi-resistant Staphylococcus aureus 171, multi-resistant Staphylococcus aureus 575, multi-resistant Staphylococcus aureus 596. The experimental strain was identified by Huashan Hospital, Fudan University (Institute of Antibiotic of Fudan University).
# (§3) Drug sensitive paper: The drug sensitive paper was a special drug sensitive paper with a diameter of 6.35 mm and a water absorption of 0.02 mL. The control drug was vancomycin (30 μg/tablet); the test drugs were pleuromutilin (30 μg/tablet), hippuric acid (30 μg/tablet) and pleuromutilin hippuric acid ester (30 μg/tablet).
# (§4) Reagents: LB agar medium, LA broth medium, 0.5% DMSO solution.
# (§5) The experimental strains were inoculated in non-selective medium and placed in air at 37° C. for 24 h. A single colony that grows well and inoculate it into broth medium was incubate at 35° C.±2° C. for 6 hours, and LA broth medium was used to calibrate the concentration of the bacterial solution to 0.5 Mie turbidimetric tube (1.5×10^8 CFU/mL). A bacterial suspension was obtained.
# (§6) LB dry powder was weighed, sterilized at 103.4 Kpa, 121.3° C. high-pressure steam for 15 min, and then placed it in a 40° C.-50° C. water bath. A sterile empty plate (inner diameter 9 cm) was placed on the surface of the ultra-clean table water table, and […] was poured to the plate. The thickness of each plate was 3 mm to 4 mm. After the plate was cooled at room temperature, it was stored in the refrigerator at 2° C.-8° C. A sterile cotton swab was used to dip the bacterial solution and ti evenly coat the surface of the LB plate 3 times. After inoculation of the bacterial suspension, the LB plate was dried at room temperature for 3 min to 5 min. Sterile forceps were used to closely attach the antibacterial drug paper to the dish. The dish was put upside down and placed in a 37° C. incubator for 24 h. The results were observed by measuring the diameter. Taking 0.5% DMSO solution as a negative control, the antibacterial activity is expressed by the diameter of the inhibition zone. The inhibition zone ≥17 mm, sensitive; the inhibition zone of 15 mm-16 mm, intermediary; the inhibition zone ≤14 mm, drug resistance.
# [2] = tested on: multi-resistant Staphylococcus aureus 575; test: paper diffusion method drug sensitivity test, MRSA-575; conditions: for Zone of Inhibition: MRSA-575, 30 μg/tablet paper disc (6.35 mm), LB plate, 37° C., 24 h; for inhibitory effect (in words): multi-drug resistant Staphylococcus aureus 575, 30 μg/tablet
# Method: as §1, §2, §3, §4, §5, §6
# [3] = tested on: multi-resistant Staphylococcus aureus 596; test: paper diffusion method drug sensitivity test, MRSA-596; conditions: for Zone of Inhibition: MRSA-596, 30 μg/tablet paper disc (6.35 mm), LB plate, 37° C., 24 h; for inhibitory effect (in words): multi-drug resistant Staphylococcus aureus 596, 30 μg/tablet
# Method: as §1, §2, §3, §4, §5, §6
Structure (SMILES),Zone of Inhibition [1],inhibitory effect (in words) [1],Zone of Inhibition [2],inhibitory effect (in words) [2],Zone of Inhibition [3],inhibitory effect (in words) [3]
O=C(O)CNC(=O)c1ccccc1 [Hippuric acid],0 mm,no inhibitory effect,0 mm,no inhibitory effect,0 mm,no inhibitory effect
"C=C[C@]1(C)C[C@@H](OC(=O)COC(=O)CNC(=O)c2ccccc2)[C@]2(C)CC[C@@H](C)[C@@]3(CCC(=O)[C@@H]23)[C@@H](C)[C@@H]1O [Pleuromutilin hippuric acid ester, (3aS,4R,5S,6S,8R,9R,9aR,12R)-5-hydroxy-4,6,9,12-tetramethyl-1-oxo-6-vinyldecahydro-3a,9-propanocyclopenta[8]annulen-8-yl 2-(2-benzamidoacetoxy)acetate]",14 mm,strong inhibitory effects,15 mm,strong inhibitory effects,25 mm,strong inhibitory effects
C=C[C@]1(C)C[C@@H](OC(=O)CO)[C@]2(C)[C@H](C)CC[C@]3(CCC(=O)[C@H]32)[C@@H](C)[C@@H]1O [Pleuromutilin],0 mm,no inhibitory effect,0 mm,no inhibitory effect,0 mm,no inhibitory effect
CN[C@H](CC(C)C)C(=O)N[C@H]1C(=O)N[C@@H](CC(N)=O)C(=O)N[C@H]2C(=O)N[C@H]3C(=O)N[C@H](C(=O)N[C@H](C(=O)O)c4cc(O)cc(O)c4-c4cc3ccc4O)[C@H](O)c3ccc(c(Cl)c3)Oc3cc2cc(c3O[C@@H]2O[C@H](CO)[C@@H](O)[C@H](O)[C@H]2O[C@H]2C[C@](C)(N)[C@H](O)[C@H](C)O2)Oc2ccc(cc2Cl)[C@H]1O [Vancomycin],15 mm,,17 mm,,23 mm,
